# Assay results published in patent EP0908457B1, “3-(1,2-benzisothiazol- and isoxazol-5-Y1)-2,4(1H,3H)-pyrimidinedione or thione and 3-(1,2-benzisothiazol- and isoxazol-5-y1)-4(3H)-pyrimidinone or thione herbicidal agents” (BASF AKTIENGESELLSCHAFT, priority 1997, dated 1999).
# Legend:
# Assay type in all cases: in vivo
# Sagittaria pygmaea, L. = experiment: Preemergence weed control under flooded paddy conditions, SAGPY (Arrowhead (Pygmaea)); conditions: flooded paddy; for SAGPY herbicidal rating / herbicidal effect rating, SAGPY: preemergence, rated three to four weeks after treatment; for SAGPY: preemergence weeds, herbicidal effect rating 0-9, three to four weeks after treatment; for herbicidal effect rating, SAGPY: meaning of each grade not given here
# [1] = system: Monochoria vaginalis, Presl.; experiment: Preemergence weed control under flooded paddy conditions, MOOVA (Monochoria); conditions: flooded paddy; for MOOVA herbicidal rating / herbicidal effect rating, MOOVA: preemergence, rated three to four weeks after treatment; for MOOVA: preemergence weeds, herbicidal effect rating 0-9, three to four weeks after treatment; for herbicidal effect rating, MOOVA: meaning of each grade not given here
# [2] = system: Cyperus serotinus, Rottb.; experiment: Preemergence weed control under flooded paddy conditions, CYPSE (Flatsedge); conditions: for CYPSE herbicidal rating / herbicidal effect rating, CYPSE: preemergence, rated three to four weeks after treatment; for herbicidal effect rating, CYPSE: meaning of each grade not given here
# [3] = system: Echinochloa oryzoides (Ard.) Fritsch.; experiment: Preemergence weed control under flooded paddy conditions, ECHORC (Watergrass (Calif.)); conditions: flooded paddy; for ECHORC herbicidal rating / herbicidal effect rating, ECHORC: preemergence, rated three to four weeks after treatment; for ECHORC: preemergence weeds, herbicidal effect rating 0-9, three to four weeks after treatment; for herbicidal effect rating, ECHORC: meaning of each grade not given here
# Cyperus iria = experiment: Preemergence weed control under flooded paddy conditions, CYPIR (Rice Flatsedge); conditions: flooded paddy; for CYPIR herbicidal rating / herbicidal effect rating, CYPIR: preemergence, rated three to four weeks after treatment; for CYPIR: preemergence weeds, herbicidal effect rating 0-9, three to four weeks after treatment; for herbicidal effect rating, CYPIR: meaning of each grade not given here
compound,measurement,setting,value
"2,4(1H,3H)-Pyrimidinedione, 3-[3-(hydroxymethyl)-1,2-benzisothiazol-5-yl]-1-methyl-6-(trifluoromethyl)-, chlorophenylacetate (ester) [Example 504]",SAGPY herbicidal rating,"Sagittaria pygmaea, L.; 0.0320 kg/ha",0.0
same,SAGPY herbicidal rating,"Sagittaria pygmaea, L.; 0.2500 kg/ha",7.0
same,MOOVA herbicidal rating,[1]; 0.0320 kg/ha,6.0
same,MOOVA herbicidal rating,[1]; 0.0620 kg/ha,8.0
same,MOOVA herbicidal rating,[1]; 0.1250 kg/ha,9.0
same,MOOVA herbicidal rating,[1]; 0.2500 kg/ha,9.0
same,CYPSE herbicidal rating,[2]; 0.0320 kg/ha,0.0
same,CYPSE herbicidal rating,[2]; 0.0620 kg/ha,0.0
same,CYPSE herbicidal rating,[2]; 0.1250 kg/ha,0.0
same,ECHORC herbicidal rating,[3]; 0.0320 kg/ha,2.0
same,ECHORC herbicidal rating,[3]; 0.0620 kg/ha,3.0
same,ECHORC herbicidal rating,[3]; 0.1250 kg/ha,6.0
same,ECHORC herbicidal rating,[3]; 0.2500 kg/ha,7.0
same,CYPIR herbicidal rating,Cyperus iria; 0.0320 kg/ha,4.0
same,CYPIR herbicidal rating,Cyperus iria; 0.0620 kg/ha,7.0
same,CYPIR herbicidal rating,Cyperus iria; 0.1250 kg/ha,9.0
same,CYPIR herbicidal rating,Cyperus iria; 0.2500 kg/ha,9.0
"COc1ccc(CC(=O)OCc2nsc3ccc(-n4c(=O)cc(C(F)(F)F)n(C)c4=O)cc23)cc1 [Example 450, 2,4(1H,3H)-Pyrimidinedione, 3-[3-(hydroxymethyl)-1,2-benzisothiazol-5-yl]-1-methyl-6-(trifluoromethyl)-, (p-methoxyphenyl)acetate (ester)]",SAGPY,"Sagittaria pygmaea, L.; 0.0320 kg/ha",5.0
same,SAGPY,"Sagittaria pygmaea, L.; 0.0620 kg/ha",5.0
same,SAGPY,"Sagittaria pygmaea, L.; 0.1250 kg/ha",6.0
same,SAGPY,"Sagittaria pygmaea, L.; 0.2500 kg/ha",9.0
same,MOOVA,[1]; 0.0320 kg/ha,7.0
same,MOOVA,[1]; 0.0620 kg/ha,7.0
same,MOOVA,[1]; 0.1250 kg/ha,9.0
same,MOOVA,[1]; 0.2500 kg/ha,9.0
same,CYPSE,"[2]; 0.0320 kg/ha, preemergence weeds, herbicidal effect rating 0-9, three to four weeks after treatment",0.0
same,ECHORC,[3]; 0.0320 kg/ha,0.0
same,ECHORC,[3]; 0.0620 kg/ha,2.0
same,ECHORC,[3]; 0.1250 kg/ha,6.0
same,ECHORC,[3]; 0.2500 kg/ha,9.0
same,CYPIR,Cyperus iria; 0.0320 kg/ha,6.0
same,CYPIR,Cyperus iria; 0.0620 kg/ha,7.0
same,CYPIR,Cyperus iria; 0.1250 kg/ha,9.0
same,CYPIR,Cyperus iria; 0.2500 kg/ha,9.0
"Cn1c(C(F)(F)F)cc(=O)n(-c2ccc3snc(COC(=O)C(C)(C)C)c3c2)c1=O [Example 498, 2,4(1H,3H)-Pyrimidinedione, 3-[3-(hydroxymethyl)-1,2-benzisothiazol-5-yl]-1-methyl-6-(trifluoromethyl)-, pivalate (ester)]",SAGPY herbicidal rating,"Sagittaria pygmaea, L.; 0.0320 kg/ha",0.0
same,SAGPY herbicidal rating,"Sagittaria pygmaea, L.; 0.0620 kg/ha",0.0
same,SAGPY herbicidal rating,"Sagittaria pygmaea, L.; 0.1250 kg/ha",3.0
same,SAGPY herbicidal rating,"Sagittaria pygmaea, L.; 0.2500 kg/ha",6.0
same,MOOVA herbicidal rating,[1]; 0.0320 kg/ha,4.0
same,MOOVA herbicidal rating,[1]; 0.0620 kg/ha,5.0
same,MOOVA herbicidal rating,[1]; 0.1250 kg/ha,7.0
same,MOOVA herbicidal rating,[1]; 0.2500 kg/ha,8.0
same,CYPSE herbicidal rating,[2]; 0.1250 kg/ha,0.0
same,ECHORC herbicidal rating,[3]; 0.0320 kg/ha,0.0
same,ECHORC herbicidal rating,[3]; 0.0620 kg/ha,3.0
same,ECHORC herbicidal rating,[3]; 0.1250 kg/ha,5.0
same,ECHORC herbicidal rating,[3]; 0.2500 kg/ha,6.0
same,CYPIR herbicidal rating,Cyperus iria; 0.0320 kg/ha,2.0
same,CYPIR herbicidal rating,Cyperus iria; 0.0620 kg/ha,5.0
same,CYPIR herbicidal rating,Cyperus iria; 0.1250 kg/ha,9.0
same,CYPIR herbicidal rating,Cyperus iria; 0.2500 kg/ha,9.0
Cc1ccc(OCC(=O)n2cnc3ccccc32)c(-c2nsc3ccc(-n4c(=O)cc(C(F)(F)F)n(C)c4=O)cc23)c1 [Example 62],"herbicidal effect rating, SAGPY","Sagittaria pygmaea, L.; 0.0313 kg/ha",0.0
same,"herbicidal effect rating, SAGPY","Sagittaria pygmaea, L.; 0.0625 kg/ha",1.0
same,"herbicidal effect rating, SAGPY","Sagittaria pygmaea, L.; 0.1250 kg/ha",4.0
same,"herbicidal effect rating, SAGPY","Sagittaria pygmaea, L.; 0.2500 kg/ha",7.0
same,"herbicidal effect rating, MOOVA",[1]; 0.0313 kg/ha,9.0
same,"herbicidal effect rating, MOOVA",[1]; 0.0625 kg/ha,9.0
same,"herbicidal effect rating, MOOVA",[1]; 0.1250 kg/ha,9.0
same,"herbicidal effect rating, MOOVA",[1]; 0.2500 kg/ha,9.0
same,"herbicidal effect rating, CYPSE",[2]; 0.0313 kg/ha,0.0
same,"herbicidal effect rating, CYPSE",[2]; 0.0625 kg/ha,1.0
same,"herbicidal effect rating, CYPSE",[2]; 0.1250 kg/ha,2.0
same,"herbicidal effect rating, CYPSE",[2]; 0.2500 kg/ha,9.0
same,"herbicidal effect rating, ECHORC",[3]; 0.0313 kg/ha,6.0
same,"herbicidal effect rating, ECHORC",[3]; 0.0625 kg/ha,9.0
same,"herbicidal effect rating, ECHORC",[3]; 0.1250 kg/ha,9.0
same,"herbicidal effect rating, ECHORC",[3]; 0.2500 kg/ha,9.0
same,"herbicidal effect rating, CYPIR",Cyperus iria; 0.0313 kg/ha,4.0
same,"herbicidal effect rating, CYPIR",Cyperus iria; 0.0625 kg/ha,6.0
same,"herbicidal effect rating, CYPIR",Cyperus iria; 0.1250 kg/ha,9.0
same,"herbicidal effect rating, CYPIR",Cyperus iria; 0.2500 kg/ha,9.0
"C#CCC(c1nsc2ccc(-n3c(=O)cc(C(F)(F)F)n(C)c3=O)cc12)S(C)(=O)=O (centres unmarked) [Example 603, 2,4(1H,3H)-Pyrimidinedione, 1-methyl-3-{3-[1-(methylsulfonyl)-3-butynyl]-1,2-benzisothiazol-5-yl}-6-(trifluoromethyl)-]","herbicidal effect rating, SAGPY","Sagittaria pygmaea, L.; Rate 0.0320 kg/ha",0.0
same,"herbicidal effect rating, SAGPY","Sagittaria pygmaea, L.; Rate 0.0620 kg/ha",0.0
same,"herbicidal effect rating, SAGPY","Sagittaria pygmaea, L.; Rate 0.1250 kg/ha",2.0
same,"herbicidal effect rating, SAGPY","Sagittaria pygmaea, L.; Rate 0.2500 kg/ha",4.0
same,"herbicidal effect rating, MOOVA",[1]; Rate 0.0320 kg/ha,7.0
same,"herbicidal effect rating, MOOVA",[1]; Rate 0.0620 kg/ha,7.0
same,"herbicidal effect rating, MOOVA",[1]; Rate 0.1250 kg/ha,9.0
same,"herbicidal effect rating, MOOVA",[1]; Rate 0.2500 kg/ha,9.0
same,"herbicidal effect rating, CYPSE",[2]; Rate 0.0320 kg/ha,0.0
same,"herbicidal effect rating, CYPSE",[2]; Rate 0.1250 kg/ha,8.0
same,"herbicidal effect rating, CYPSE",[2]; Rate 0.2500 kg/ha,9.0
same,"herbicidal effect rating, ECHORC",[3]; Rate 0.0320 kg/ha,0.0
same,"herbicidal effect rating, ECHORC",[3]; Rate 0.0620 kg/ha,4.0
same,"herbicidal effect rating, ECHORC",[3]; Rate 0.1250 kg/ha,6.0
same,"herbicidal effect rating, ECHORC",[3]; Rate 0.2500 kg/ha,8.0
same,"herbicidal effect rating, CYPIR",Cyperus iria; Rate 0.0320 kg/ha,5.0
same,"herbicidal effect rating, CYPIR",Cyperus iria; Rate 0.1250 kg/ha,6.0
same,"herbicidal effect rating, CYPIR",Cyperus iria; Rate 0.2500 kg/ha,7.0
